What was measured:
[1] = test system: C. xeroses; format: cell-based, Corynebacterium xerosis
From the text: (§1) The following bacterial strains were utilized: Escherichia coli UB1005 (wt) and its antibiotic supersusceptible derivative DC2 (Clark, 1984); Excherichia coli SC9251 and its polymixin B rasistant mutant pmrA SC9252 (Peterson, et al., 1987) Pseudomonas aeruginosa H187 (wt) (Angus, et al., 1987) and its antibiotic-sensitive derivative H188 (Zimmerman, W, Antimicrob. Agents Chemother. 18: 94-100, 1980); methicillin sensitive Staphylococcus aureus K147 (Kreiswirth, et al., 1983); Staphylococcus aureus SAP0017, a methicillin resistant clinical isolate from Dr. A. Chow (University of British Columia); Bacillus subtilis, an environmental wt lab strain. Enterococcus faecalis are ATCC 29212 cells and Staphylococcus epidermidis was a clinical isolate from Dr. D. Speert (University of British Columbia). Antifungal activity was tested using a clinical lab isolate of Candida albicans. Salmonella typhinurium C57 and C610 (Fields, P.I., et al., Science 243: 1059-1062 (1989) Corynebacterium xerosis was an environmental isolate (University of British Columbia).
(§2) It is now apparent that agar-based assays severely underestimate antifungal activity as well as activity against gram negative microorganisms (Kondejewski, et al., 1996). Consequently, in the studies reported herein, a liquid-broth method was used to measure the antibiotic properties of the peptides. […] Briefly, cells were grown overnight at 37° C. in LB and diluted in the same medium. Serial dilutions of antibiotics were added to the microtitre plates in a volume of 100 μL followed by 10 μL of bacteria to give a final inoculum of 5×10^5 CFU/mL. Plates were incubated at 37° C. overnight and MICs determined as the lowest antibiotic concentration that inhibited growth. […]

[2] = test system: C. Albicans; format: cell-based, Candida albicans
From the text: as §1, §2

[3] = test system: B. subtilis; format: cell-based, Bacillus subtilis
From the text: as §1, §2

[4] = test system: E. coli UB1005; format: cell-based, Escherichia coli; conditions: UB1005
From the text: as §1, §2

[5] = test system: S. typhinurium C587; format: cell-based, Salmonella typhinurium
From the text: as §1, §2

[6] = test system: S. typhinurium C610; format: cell-based, Salmonella typhinurium
From the text: as §1, §2

[7] = test system: S. aureus K147; format: cell-based, Staphylococcus aureus
From the text: as §1
(§3) It is now apparent that agar-based assays severely underestimate antifungal activity as well as activity against gram negative microorganisms (Kondejewski, et al., 1996). Consequently, in the studies reported herein, a liquid-broth method was used to measure the antibiotic properties of the peptides. […] Briefly, cells were grown overnight at 37° C. in LB and diluted in the same medium. Serial dilutions of antibiotics were added to the microtitre plates in a volume of 100 μL followed by 10 μL of bacteria to give a final inoculum of 5×10^5 CFU/mL. Plates were incubated at 37° C. overnight and MICs determined as the lowest antibiotic concentration that inhibited growth.
(§4) The results from antimicrobial and hemolytic assays are combined to provide a “Therapeutic Index” (TI) for each peptide with respect to individual microorganisms. As reported herein, the TI is calculated as the hemolytic activity divided by the antimicrobial activity. The TI thus is a measure of specificity of the particular peptide for microbial membranes as opposed to human blood cell membranes. In the present studies, antimicrobial activities are reported as minimum inhibitory concentrations (MIC)—the lowest concentration of peptide (μg/ml) found to inhibit growth of the particular microbe. Hemolytic activity is reported as the concentration of peptide that effected complete lysis of blood cells after four hours. Thus, in the context of the present invention high TI values indicate microbial specificity and relative lack of toxicity.

[8] = test system: S. aureus SAP0017; format: cell-based, Staphylococcus aureus
From the text: as §1, §3, §4

[9] = test system: E. coli DC2; format: cell-based, Escherichia coli; conditions: DC2
From the text: as §1, §3, §4

[10] = test system: P. aeruginosa H188; format: cell-based, Pseudomonas aeruginosa; conditions: H188
From the text: as §1, §2

[11] = Displacement of dansyl-polymyxin from LPS; format: binding, P. aeruginosa; conditions: read-out: LPS binding affinity: peptide concentration to displace 50% of dansyl-polymyxin B from LPS; Tables 1, 4, 7
From the text: In order to determine whether ring size affects the interaction between the peptide and bacterial membranes, we studied the interaction between the GS ring analogs and bacterial lipopolysaccharide (LPS). It has been shown previously that dansyl-polymixin (DPX) is a good probe for cationic binding sites on both purified LPS as well as whole bacterial cells (Example 8; Moore, et al., 1986; Sawyer, et al., 1988; Hancock, 1981). […] The LPS binding activity of various GS analogs was investigated, as discussed above.
Dansyl-polymixin (DPX) displacement from P. aeruginosa LPS was measured as described (Moore, et al., 1986). Briefly, peptides were titrated into cuvettes containing 3 μg of LPS per mL and 2.5 μM dansyl-polymixin (approximately 90% saturation of LPS binding sites) in 1 mL of 5 mM sodium HEPES buffer, pH 7.0, and the decrease in fluorescence recorded. A plot of the inverse of the percent inhibition as a function of the inverse of inhibitor concentration gave a value for I50, the inhibitor concentration resulting in 50% displacement of dansyl-polymixin from LPS (−1/× intercept).

[12] = test system: S. epidermidis; format: cell-based, Staphylococcus epidermidis
From the text: as §1, §2

[13] = test system: E. faecalis; format: cell-based, Enterococcus faecalis
From the text: as §1, §2

[14] = test system: P. aeruginosa H187; format: cell-based, Pseudomonas aeruginosa; conditions: H187
From the text: as §1, §3, §4

Structure (SMILES) | Minimum Inhibitory Concentration (activity) [1] | Minimum Inhibitory Concentration (activity) [2] | Minimum Inhibitory Concentration (activity) [3] | Minimum Inhibitory Concentration (activity) [4] | Minimum Inhibitory Concentration (activity) [5] | Minimum Inhibitory Concentration (activity) [6] | Minimum Inhibitory Concentration (activity) [7] | Minimum Inhibitory Concentration (activity) [8] | Minimum Inhibitory Concentration (activity) [9] | Minimum Inhibitory Concentration (activity) [10] | IC50 [11] | Minimum Inhibitory Concentration (activity) [12] | Minimum Inhibitory Concentration (activity) [13] | Minimum Inhibitory Concentration (activity) [14]
CC(C)C[C@@H]1NC(=O)[C@H](CCCCN)NC(=O)[C@H](C(C)C)NC(=O)[C@H](CCCCN)NC(=O)[C@H](CC(C)C)NC(=O)[C@@H]2CCCN2C(=O)[C@@H](Cc2ccc(O)cc2)NC(=O)[C@H](C(C)C)NC(=O)[C@H](CCCCN)NC(=O)[C@@H](CC(C)C)NC(=O)[C@H](CCCCN)NC(=O)[C@H](C(C)C)NC(=O)[C@@H]2CCCN2C(=O)[C@@H](Cc2ccc(O)cc2)NC1=O [GS14L3] | 0.8 µg/mL | 100 µg/mL | >200 µg/mL | 200 µg/mL | >200 µg/mL | >200 µg/mL | >200 µg/mL | 200 µg/mL | 50 µg/mL | 200 µg/mL | 35 µM | 50 µg/mL | 0.8 µg/mL | >200 µg/mL
CC(C)C[C@@H]1NC(=O)[C@H](CCCCN)NC(=O)[C@H](C(C)C)NC(=O)[C@@H]2CCCN2C(=O)[C@@H](Cc2ccc(O)cc2)NC(=O)[C@H](CC(C)C)NC(=O)[C@H](CCCCN)NC(=O)[C@H](C(C)C)NC(=O)[C@H](CCCCN)NC(=O)[C@H](CC(C)C)NC(=O)[C@H]2CCCN2C(=O)[C@@H](Cc2ccc(O)cc2)NC(=O)[C@H](C(C)C)NC(=O)[C@H](CCCCN)NC1=O [GS14P7] | 1 µg/mL | 25 µg/mL | >200 µg/mL | 200 µg/mL | >200 µg/mL | 200 µg/mL | >200 µg/mL | >200 µg/mL | 6.2 µg/mL | 100 µg/mL | 18 µM | 6.2 µg/mL | 6.2 µg/mL | 200 µg/mL
CC(C)C[C@@H]1NC(=O)[C@H](CCCCN)NC(=O)[C@H](C(C)C)NC(=O)[C@H]2CCCN2C(=O)[C@@H](Cc2ccc(O)cc2)NC(=O)[C@H](CC(C)C)NC(=O)[C@H](CCCCN)NC(=O)[C@H](C(C)C)NC(=O)[C@H](CCCCN)NC(=O)[C@H](CC(C)C)NC(=O)[C@@H]2CCCN2C(=O)[C@@H](Cc2ccc(O)cc2)NC(=O)[C@H](C(C)C)NC(=O)[C@H](CCCCN)NC1=O [GS14P14] | 1 µg/mL | 25 µg/mL | >200 µg/mL | 100 µg/mL | >200 µg/mL | >200 µg/mL | >200 µg/mL | >200 µg/mL | 4 µg/mL | 100 µg/mL | 20 µM | 6.2 µg/mL | 6.2 µg/mL | >200 µg/mL
CC(C)C[C@@H]1NC(=O)[C@H](CCCCN)NC(=O)[C@H](C(C)C)NC(=O)[C@@H]2CCCN2C(=O)[C@H](Cc2ccc(O)cc2)NC(=O)[C@H](CC(C)C)NC(=O)[C@H](CCCCN)NC(=O)[C@H](C(C)C)NC(=O)[C@H](CCCCN)NC(=O)[C@H](CC(C)C)NC(=O)[C@@H]2CCCN2C(=O)[C@@H](Cc2ccc(O)cc2)NC(=O)[C@H](C(C)C)NC(=O)[C@H](CCCCN)NC1=O [GS14Y13] | 1 µg/mL | 25 µg/mL | >200 µg/mL | 100 µg/mL | >200 µg/mL | >200 µg/mL | >200 µg/mL | >200 µg/mL | 3.1 µg/mL | 100 µg/mL | 24 µM | 9 µg/mL | 3.1 µg/mL | >200 µg/mL
CC(C)C[C@@H]1NC(=O)[C@H](CCCCN)NC(=O)[C@H](C(C)C)NC(=O)[C@@H]2CCCN2C(=O)[C@@H](Cc2ccc(O)cc2)NC(=O)[C@H](CC(C)C)NC(=O)[C@H](CCCCN)NC(=O)[C@H](C(C)C)NC(=O)[C@@H](CCCCN)NC(=O)[C@H](CC(C)C)NC(=O)[C@@H]2CCCN2C(=O)[C@@H](Cc2ccc(O)cc2)NC(=O)[C@H](C(C)C)NC(=O)[C@H](CCCCN)NC1=O [GS14K9] | 1.5 µg/mL | 6.2 µg/mL | 25 µg/mL | – | 17 µg/mL | 6.2 µg/mL | 50 µg/mL | 25 µg/mL | 3.1 µg/mL | 62 µg/mL | 60 µM | 6.2 µg/mL | 1.5 µg/mL | 50 µg/mL
CC(C)C[C@@H]1NC(=O)[C@H](CCCCN)NC(=O)[C@@H](C(C)C)NC(=O)[C@@H]2CCCN2C(=O)[C@@H](Cc2ccc(O)cc2)NC(=O)[C@H](CC(C)C)NC(=O)[C@H](CCCCN)NC(=O)[C@H](C(C)C)NC(=O)[C@H](CCCCN)NC(=O)[C@H](CC(C)C)NC(=O)[C@@H]2CCCN2C(=O)[C@@H](Cc2ccc(O)cc2)NC(=O)[C@H](C(C)C)NC(=O)[C@H](CCCCN)NC1=O [GS14V1] | 1.5 µg/mL | 5 µg/mL | 50 µg/mL | 6.2 µg/mL | 50 µg/mL | 6.2 µg/mL | 100 µg/mL | 50 µg/mL | 3.1 µg/mL | 3.1 µg/mL | 41 µM | 3.1 µg/mL | 1.5 µg/mL | 60 µg/mL
